Laboratory results published in patent US20140193827A1 (TEVA PHARMACEUTICAL INDUSTRIES, LTD., priority 2013, published 2014).

System: GA-primed murine splenocytes
Experiment: Tolerance method for assessing process variability
[1] = microarray, splenocytes activated 24 hours

With glatiramer acetate [GA] the “AVG expression of SH3RF1, probe ILMN_2602597” value [1] was 7.302, the “AVG expression of SLC25A1, probe ILMN_2619846” value [1] was 8.032 and the “AVG expression of SLCO3A1, probe ILMN_2663230” value [1] was 8.007. The “AVG expression of SMOX, probe ILMN_2597030” value [1] was 8.19, the “AVG expression of SPN, probe ILMN_2574982” value [1] was 6.823 and the “AVG expression of STK4, probe ILMN_3004142” value [1] was 11.07. For the same substance, the “AVG expression of TARDBP, probe ILMN_3093089” value [1] was 8.366, the “AVG expression of TBCD, probe ILMN_2891506” value [1] was 9.516 and the “AVG expression of TNF, probe ILMN_2899863” value [1] was 8.846. The “AVG expression of TNFAIP3, probe ILMN_1252202” value [1] was 9.205, the “AVG expression of TNIP1, probe ILMN_2417863” value [1] was 10.34 and the “AVG expression of UBAC2, probe ILMN_2484838” value [1] was 8.614. The “AVG expression of UBAC2, probe ILMN_2949605” value [1] was 10.08, the “AVG expression of UBE2L6, probe ILMN_2431619” value [1] was 8.561 and the “AVG expression of UCHL5, probe ILMN_1240153” value [1] was 8.74. The “AVG expression of VAMP4, probe ILMN_2516348” value [1] was 8.312, the “AVG expression of WDR68, probe ILMN_2546073” value [1] was 7.546 and the “AVG expression of ZBP1, probe ILMN_1228653” value [1] was 7.444. The “AVG expression CCND2” value (probe IIMN_2700166) was 11.38, the “AVG expression RFTN2” value (probe ILMN_1212653) was 7.109 and the “AVG expression ZFP318” value (probe ILMN_1212982) was 9.704. The “AVG expression TXNIP” value (probe ILMN_1213609) was 11.89, the “AVG expression SGK1” value (probe ILMN_1213954) was 9.667 and the “AVG expression IFITM1” value (probe ILMN_1214071) was 11.55. For the same substance, the “AVG expression SNX29” value (probe ILMN_1214294) was 7.713, the “AVG expression A530050E01RIK” value (probe ILMN_1214783) was 7.616 and the “AVG expression IL24” value (probe ILMN_1214841) was 7.762. The “AVG expression HSD11B1” value (probe ILMN_1214998) was 8.421, the “AVG expression LOC100046608” value (probe ILMN_1215796) was 7.035 and the “AVG expression CXCL9” value (probe ILMN_1215862) was 9.757. For the same substance, the “AVG expression APOE” value (probe ILMN_1216042) was 7.5268, the “AVG expression STIM1” value (probe ILMN_1216313) was 8.348 and the “AVG expression TPCN1” value (probe ILMN_1217102) was 8.543. For the same substance, the “AVG expression IFITM1” value (probe ILMN_1217180) was 11.85, the “AVG expression PKIB” value (probe ILMN_1217389) was 11.19 and the “AVG expression PRKACB” value (probe ILMN_1217408) was 11.88. For the same substance, the “AVG expression ITGAE” value (probe ILMN_1217629) was 7.553, the “AVG expression STAU2” value (probe ILMN_1217723) was 8.737 and the “AVG expression ITK” value (probe ILMN_1217899) was 7.055. For the same substance, the “AVG expression D230007K08RIK” value (probe ILMN_1217913) was 9.225, the “AVG expression SCO1” value (probe ILMN_1218036) was 9.072 and the “AVG expression TMIE” value (probe ILMN_1218037) was 8.752. The “AVG expression IFITM6” value (probe ILMN_1218181) was 6.28, the “AVG expression CD69” value (probe ILMN_1218240) was 11.83 and the “AVG expression IL18R1” value (probe ILMN_1218525) was 7.946. For the same substance, the “AVG expression A630054M16RIK” value (probe ILMN_1218533) was 8.828, the “AVG expression LOC385615” value (probe ILMN_1218717) was 8.213 and the “AVG expression EMB” value (probe ILMN_1218799) was 9.501. The “AVG expression 5031436O03RIK” value (probe ILMN_1219017) was 7.811, the “AVG expression LTK” value (probe ILMN_1219860) was 7.398 and the “AVG expression LOC623121” value (probe ILMN_1219896) was 9.039. For the same substance, the “AVG expression EBI2” value (probe ILMN_1220101) was 11.29, the “AVG expression CTSG” value (probe ILMN_1220236) was 7.594 and the “AVG expression TTC28” value (probe ILMN_1220397) was 7.127. For the same substance, the “AVG expression GM590” value (probe ILMN_1220788) was 8.022, the “AVG expression PSAT1” value (probe ILMN_1221048) was 10.49 and the “AVG expression TTYH3” value (probe ILMN_1221311) was 7.858. The “AVG expression LOC100048841” value (probe ILMN_1221516) was 7.303, the “AVG expression ADCY7” value (probe ILMN_1221530) was 8.272 and the “AVG expression ELA2” value (probe ILMN_1221700) was 6.367. For the same substance, the “AVG expression FCGRT” value (probe ILMN_1221819) was 8.525, the “AVG expression FAIM3” value (probe ILMN_1221820) was 13.69 and the “AVG expression PAQR7” value (probe ILMN_1222036) was 6.448. The “AVG expression UGT1A10” value (probe ILMN_1222543) was 6.383, the “AVG expression ROGDI” value (probe ILMN_1222821) was 8.291 and the “AVG expression INDO” value (probe ILMN_1223600) was 7.297. The “AVG expression SMPDL3A” value (probe ILMN_1224116) was 7.588, the “AVG expression SPSB1” value (probe ILMN_1224336) was 8.95 and the “AVG expression LOC380797” value (probe ILMN_1224473) was 8.096. For the same substance, the “AVG expression E130113K22RIK” value (probe ILMN_1224945) was 7.685, the “AVG expression PRKCB” value (probe ILMN_1225085) was 11.14 and the “AVG expression 4930519L02RIK” value (probe ILMN_1225132) was 7.525. The “AVG expression CDKN2D” value (probe ILMN_1225214) was 8.24, the “AVG expression FDPS” value (probe ILMN_1225730) was 12.65 and the “AVG expression MFSD2” value (probe ILMN_1225764) was 8.49. The “AVG expression GAB3” value (probe ILMN_1226514) was 7.563, the “AVG expression E030007N04RIK” value (probe ILMN_1226755) was 8.626 and the “AVG expression MAN2A2” value (probe ILMN_1226901) was 6.871. For the same substance, the “AVG expression D9ERTD392E” value (probe ILMN_1227277) was 9.413, the “AVG expression ITGB7” value (probe ILMN_1227434) was 9.885 and the “AVG expression LOC386545” value (probe ILMN_1227570) was 8.23. For the same substance, the “AVG expression IL12RB1” value (probe ILMN_1227900) was 8.071, the “AVG expression GMFG” value (probe ILMN_1227907) was 10.95 and the “AVG expression IFI30” value (probe ILMN_1228213) was 12.19. For the same substance, the “AVG expression A430106G13RIK” value (probe ILMN_1228804) was 6.595, the “AVG expression NGP” value (probe ILMN_1228832) was 8.125 and the “AVG expression C330023M02RIK” value (probe ILMN_1228917) was 9.763.
